US9358261B2, “Additional artemisinin and berberine compositions and methods of making” (U.S. Phytotherapy, Inc., priority 2011, dated 2016)

Legend:
chikungunya virus = settings: 250 mg/day; cited from earlier work
Lyme disease = assay: Lyme Disease Case Study #2; type: in vivo, human; settings: treatments before coACT A-B, person
Source text: They worked as a full-time project manager for a non-profit food bank, and lives in the United States. Their symptoms first appeared in August of 2010. When […] was first diagnosed they had skin rashes that were not helped with topical treatments, low-grade fevers, severe migraines, continuous muscle aches, sore throat, stomach pain, joint pains, gynecological issues, and constant fatigue. The initial indication was hives on stomach and back which grew to circular rashes on both thighs, all directly following an insect bite from a horse fly.
From these professionals they were diagnosed not only with Lyme disease, but the following diagnoses and/or misdiagnoses: fibromyalgia, depression, arthritis, pinched nerve, burning mouth syndrome, and mycotoxic poisoning. By May 2011 they were confirmed with Lyme disease and subsequently reconfirmed by another physician in August 2011. Their case of Lyme disease was clinically diagnosed based on lab findings, Western Blot, and symptomatology. […] Tindamax was likewise not tolerated. […] Other anti-fungals caused pain and further reduced their energy levels.
[…] […] They reported climbing the lighthouse stairs in St. Augustine, Fla. without suffering a decrease in energy afterwards, which was atypical for them at that time. […] Kathy has stated that coACT provided them with “a few really good weeks which is invaluable when you haven't functioned normally for some time. For chronic long-term patients, I suspect additional dosing (like every few months or so) is necessary. For newcomers or uncomplicated cases, it could be a bridge to health and healing.

JCV = settings: literature case reports; cited from earlier work
chikungunya disease = settings: cell culture and monkeys; cited from earlier work

| Compound | outcome of earlier treatments in patient history (Lyme disease) | also measured |
| --- | --- | --- |
| CCN(CC)CCCC(C)Nc1ccnc2cc(Cl)ccc12 (centres unmarked) [chloroquine phosphate] |  | effect on arthritis-like symptoms not relieved by aspirin and NSAID (chikungunya virus): promising results |
| CO/N=C(\C(=O)N[C@@H]1C(=O)N2C(C(=O)O)=C(CSc3nc(=O)c(=O)[nH]n3C)CS[C@H]12)c1csc(N)n1 [Rocephin] | helped restore their energy, but caused an allergic reaction |  |
| Nc1nc2c(ncn2COCCO)c(=O)[nH]1 [Acyclovir] | caused their symptoms to worsen in that they could not lift their arms |  |
| CCCSc1ccc2nc(NC(=O)OC)[nH]c2c1 [Albendazole] | seemed to help them with passing parasites |  |
| OC(c1cc(C(F)(F)F)nc2c(C(F)(F)F)cccc12)C1CCCCN1 (centres unmarked) [mefloquine] |  | clinical outcome in PML patients (JCV): seemed to eliminate the virus from the patient's body and prevented further neurological deterioration |
| Nc1ccn([C@@H]2O[C@H](CO)[C@@H](O)[C@@H]2O)c(=O)n1 [Cytarabine] |  | clinical outcome in PML patients (JCV): stabilized the neurological condition of a minority of these patients |
| Ivermectin | helped them to pass parasites in their stool, but left their lifeless, dizzy, and with nystagmus |  |
| C[C@@H]1[C@H](O)[C@@H](C)/C=C/C=C/CC/C=C/C=C/C=C/C=C/C(O[C@H]2O[C@H](C)[C@@H](O)[C@H](N)[C@@H]2O)CC2O[C@](O)(CC(O)C(O)CCC(O)CC(O)CC(O)CC(=O)O[C@H]1C)CC(O)C2C(=O)O (some centres unmarked) [Nystatin] | neither of which made any detectable difference |  |
| CCN(CC)CCCC(C)Nc1ccnc2cc(Cl)ccc12 (centres unmarked) [chloroquine] |  | reduction of chikungunya disease (chikungunya disease): no effect |
| CN1CCCN=C1/C=C/c1cccs1.O=C(O)c1cc2ccccc2c(Cc2c(O)c(C(=O)O)cc3ccccc23)c1O [Pyrantal Pamoate] | helped them to pass parasites in their stool, but left their lifeless, dizzy, and with nystagmus |  |
| CCS(=O)(=O)CCn1c([N+](=O)[O-])cnc1C [Tindamax] | not tolerated |  |
